# “Also recorded” adds a separate entry of the source.
# Columns and labels:
# [1] = tested on: NB1 cultured cell line derived from human neuroblastoma; experiment: Western blotting of ATBF1 protein (D1-120) with or without retinoic acid treatment, NB1; type: cell-based; settings: NB1, after retinoic acid treatment 24 hours
# Description: In order to confirm the probability that the ATBF1 assumed in 10-2 is cut at some sites and it can function as each fraction of the cell, by using three kinds of cultured cells, that is, the cultured cell lines derived from human neuroblastoma, NB1 and GOTO; a mouse undifferentiated embryonic carcinoma cell line p19 and SDS-PAGE and western blotting using an anti-ATBF1 antibody (D1-120) were carried out. A control group and a nerve cell differentiation inducing group were examined, separately. As to the control group, cells of P19, NB1 and GOTO that have been cultured in a serum-containing culture solution were collected and examined. As to the nerve cell differentiation inducing group, retinoic acid treatment was carried out (P19: four days; NB1 and GOTO: 24 hours). However, a culture method of P19 cells is different from that of the other two cell lines. Firstly, in a state in which cells were allowed to float on a bacterial grade dish for four days, retinoic acid (concentration: […]) treatment was carried out, and then a serum-containing culture solution from which the retinoic acid had removed was prepared and transferred to a usual tissue culture dish. Then, culture was continued for three days. According to this method, P19 cells were differentiated and induced to neuron in which neurite was observed. […]
# P19 cells [2] = experiment: Movement of ATBF1 from cytoplasm to nucleus in P19 cells, PI3K family antagonists added; type: cell-based, mouse; settings: P19 cells attached to culture dish, after retinoic acid
# Description: The present inventors harvested cells in an undifferentiated proliferation state, to which stimulation had not been particularly applied, when at the starting time of culturing P19 carcinoma cells, and carried out an immunohistochemical staining method (ATBF1 staining using D1-120) by the following procedures. The cells were cultured in a chamber slide and fixed in 4% paraformaldehyde that had been adjusted with PBS, followed by washing. A primary antibody solution obtained by dissolving an anti-ATBF1 antibody in 0.05M Tris buffer solution (pH 7.6, containing 1% solution of bovine serum albumin and sodium azide) so that the concentration of the solution became 5 μg/ml was dropped on a slice to cause reaction at 37° C. for about 30 minutes (primary antibody reaction). […] After sufficiently washing, inclusion was carried, which was observed by using a fluorescence microscope (AX70; Olympus) or a confocal laser scanning microscope (LSM5; ZWISS). […]
# From the fact about various factors relating to the cell cycle, which was investigated in the past, the movement of proteins between the nucleus and the cytoplasm is known to relate to phosphorylation of amino acid. In particular, it was determined that, for the movement to the nucleus, phosphorylation and dephosphorylation of nuclear localization signals were important. […]
# T24 = settings: T24, p53 nonsense mutant; cited from earlier work
# HT1376 = settings: HT1376, p53 missense mutant, p21 frame shift mutation; cited from earlier work
# RT4 = settings: cited from earlier work
# P19 cells [3] = experiment: Export of ATBF1 from nucleus to cytoplasm in P19 cells, CRM1 inhibitor added; type: cell-based, mouse
# Description: The present inventors harvested cells in an undifferentiated proliferation state, to which stimulation had not been particularly applied, when at the starting time of culturing P19 carcinoma cells, and carried out an immunohistochemical staining method (ATBF1 staining using D1-120) by the following procedures. The cells were cultured in a chamber slide and fixed in 4% paraformaldehyde that had been adjusted with PBS, followed by washing. A primary antibody solution obtained by dissolving an anti-ATBF1 antibody in 0.05M Tris buffer solution (pH 7.6, containing 1% solution of bovine serum albumin and sodium azide) so that the concentration of the solution became 5 μg/ml was dropped on a slice to cause reaction at 37° C. for about 30 minutes (primary antibody reaction). After sufficiently washing, a secondary antibody Alexa Fluor 594-conjugated goat anti-rabbit IgG (as shown in the below-mentioned Examples, when double staining with other monoclonal antibody is carried out, Alexa Fluor 488-conjugated goat anti-mouse IgG is used simultaneously. Both are products by Molecular Probes.) was allowed to act on a specimen to cause a reaction at room temperature for about one hour (secondary antibody reaction). After sufficiently washing, inclusion was carried, which was observed by using a fluorescence microscope (AX70; Olympus) or a confocal laser scanning microscope (LSM5; ZWISS).
# Recently, the fact that transport and export of various factors from the nucleus to the cytoplasm is adjusted with CRM1 (Exportin 1 or chromosome region maintenance 1) has been reported. ATBF1 is assumed to have a target sequence of CRM1, that is, nuclear exporting signals existing in three positions (portions starting from the 1267th, 2471th and 2504th positions in the amino acid sequence, respectively) (see FIG. 3b). […]
compound,measurement,setting,value
CC1=C(/C=C/C(C)=C/C=C/C(C)=C/C(=O)O)C(C)(C)CCC1 [retinoic acid],size of ATBF1 protein mainly observed,[1],210 kDa
Cn1c(=O)c2c(ncn2C)n(C)c1=O [caffeine],movement of ATBF1 into the nucleus,P19 cells [2],inhibited in almost all of the cultured cells; also recorded: more completely inhibited
same,proliferation state of cells,P19 cells [2],completely maintained
N.N.[Cl][Pt][Cl] [cisplatin],induction of apoptosis,T24,cannot be induced
same,induction of apoptosis,HT1376,cannot be induced
same,introduction of p21,"RT4; RT4, the only one of the three cell lines",can introduce p21
same,induction of apoptosis,"RT4; RT4, wild-type p21 and p53",can be induced
CCC(=C/[C@H](C)C/C=C/C(C)=C/[C@@H](C)C(=O)[C@@H](C)[C@H](O)[C@@H](C)C/C(C)=C/C(=O)O)/C=C/[C@@H]1OC(=O)C=C[C@@H]1C [Leptomycin B],number of cells undergoing apoptosis,P19 cells [3]; P19 cells after retinoic acid on coated dish,clearly increased
same,intranuclear concentration of ATBF1,"P19 cells [3]; P19 cells after retinoic acid on dish coated with fibronectin and poly-L-ornithine, versus no Leptomycin B",clearly increased
same,cell death,"P19 cells [3]; one more day of culture added, the following day",almost all the cells died

# From patent publication US7871788B2, “Method of judging grade of malignancy of carcinoma cell using ATBF-1” (priority 2004, dated 2011)
